Experimental data: patent publication EP0765662A1, “HIV GROWTH INHIBITORY COMPOSITION” (Kochi, Mutsuyuki, priority 1994, dated 1995)
Structures can show the parent of a compound that is named as a salt.

Assays:
[1] = test system: HIVBRU; experiment: HIV-p24 antigen released from HIV-infected A3.01 cells stimulated with TNF-α; format: cell-based; conditions: TNF-α 10 units/ml; for Amount of the HIV p24 antigen: HIV-infected A3.01 cells
Source text: In view of all these test results, it appears that the inhibitory activity of SBA against the replication of HIV-1 is not attributable to that SBA directly acts on HIV so as to make lose the infectivity (infectious power) of HIV. (c) Test of examining the inhibitory activity of SBA against such replication of the viral particles of HIV which is induced when a tumor necrosis factor (TNF-α) is introduced into the HIV-infected A3.01 cells AIDS virus, HIVBRU (its reverse transcriptase activity, 0.03 cpm/cell) and 6 x 10^6 cells of the A3.01 cell (HAT-susceptible CEM cell strain) were mixed and reacted together in a culture medium at 37°C for 1 hour, and thereafter the mixed cells were washed with PBS to remove the excess of the particles of HIV virus therefrom. The A3.01 cells (5 x 10^5 cells) which had been so infected with HIV were then cultivated in various culture media containing TNF-α and SBA at different concentrations of them. The amount of the HIV-p24 antigen (an HIV-structural protein of HIV) which was released in the culture supernatant from the cultivated cells under test was periodically measured during the period of between 0 day to 5th day of the cultivation. The culture medium used for the above-mentioned cultivation of the A3.01 cells was an RPM1-1640 medium comprising 10% of heat-treated embryonic bovine serum, and minor amounts of penicillin, streptomycin, glutamine and mercaptoethanol. The amount of the HIV-p24 antigen produced was measured with lapse of time, and the relationship of the amount of the HIV-p24 antigen to the concentration of SBA is summarily tabulated in Table 4 below.
In the tests above, the replication of the viral particles of HIV was examined in terms of the amount of the p24 antigen protein produced and appearing in the culture supernatant from the cultivated cells. Thus, the amount of the p24 antigen produced was measured periodically over 6 days after the A3.01 cells were infested with HIV. It was then observed that in the absence of SBA, the replication of the viral particles of HIV was induced in the A3.01 cells by stimulation with 10 units/ml of TNF-α added. […] Thus, the effective amount of SBA has the activity to inhibit the replication of the viral particles of HIV within the cells to an extent as same as AZT, and from this it is expected that SBA is useful similarly to AZT for the therapeutic treatments of AIDS. (d) Tests for evaluating an inhibitory activity of SBA to the formation of giant cells from HIV-infected Molt-4 cells In a similar manner to that in the above Test (c), Molt-4 cells (a CD4-positive human T-cell strain) were infected with AIDS virus, HIVBRU. Thereafter, The HIV-infected Molt-4 cells were mixed with such Molt-4 cells which had no HIV-infection. And the mixture of these cells were cultivated at a high density of the mixed cells in the above-mentioned improved RPM1-1640 medium containing SBA at its different concentrations. Whereupon, there was examined the presence of cell-fused cell(s) (namely, the giant cells) which were formed by fusion of the HIV-infected cells with each other or by fusion of the HIV-infected cells with the HIV-non-infected cells. The formation and appearance of the giant cells was confirmed by microscopic observation. The size of such giant cells is clearly different from the size of the other usual cells. […] Namely, it is shown that SBA has an anti-HIV activity. […] In the initial stage of the transcription of HIV-1 gene, said NFkB, i.e. the transcription regulating factor of the host cells, plays an important role. […] NFkB is known to be a complex protein which is composed by the association of a molecule of protein having a molecular weight of about 50,000 (p50) with a molecule of protein having a molecular weight of about 65,000 (p65). […]

[2] = test system: ICR strain mice; experiment: Evaluation of toxicity (intravenous, mice); format: in vivo; conditions: intravenously, 1000 mg per kg body weight, male, 5 mice in each group
Protocol: SBA in the form of a solution in a physiological saline (containing […]) was administered intravenously to ICR strain mice (5 week-aged, male, 5 mice in each group) at a dosage of 1000 mg per kg of the body weight of mice tested.

[3] = test system: HIV; experiment: HIV-p24 antigen in culture supernatant of HIV-infected mitogen-derived blast cells of PBMC; format: cell-based; conditions: for Amount of HIV-p24 antigen: PHA-activated PBMC blast cells, culture supernatant
Protocol: The cytotoxicity of SBA against the A3.01 cells, at a high SBA concentration of 1000 µg of SBA/ml, was such that the rate of survival of said cells was about 70%. The above results of testing the cytotoxicity of SBA indicate that the cytotoxicity of SBA against the above various cells is fairly low. On the other hand, with the HIV-infected A3.01 cells, it is seen that the presence of SBA at concentrations in a range of from 500 to 800 µg of SBA/ml gives the rate of survival of the HIV-infected A3.01 cells at a level as low as 3-24%. […] (b) Tests of examining the inhibitory activities of SBA against infestion of HIV to mitogen-derived blast cells of human periphery blood monocytic cell (PBMC) and against proliferation of HIV in the HIV-infected blast cells of PMBC as well as against replication of the viral particles of HIV in the HIV-infected blast cells of PBMC, where HIV was made to infest the blast cells of PBMC of which the blastogenesis has been induced by a mitogen. Such blast cells of PBMC, which were blastogenetically transformed by activation with PHA […] as a mitogen, were cultivated and then made to be infested with HIV either by inoculation of HIV or by inoculation of HIV which had been pretreated with SBA. The HIV-infected cells so obtained continued further to be incubated in the culture media containing different concentrations of SBA. Then, the supernatant of the resulting cultures was separated, and the amount of the viral particles of HIV as released in the supernatant so obtained was measured. This measurement of the released amount of the viral particles of HIV was made by determining the amount of HIV-p24 antigen, i.e. a structural protein of HIV, existing in the supernatant, as a substitute index which can represent the amount of the viral particles of HIV so released in said supernatant.

With `O=C1O[C@H]([C@@H]2COC(c3ccccc3)O2)C(O)=C1O` (stereo partly drawn) [SBA, 5,6-O-benzylidene-L-ascorbic acid mono-sodium salt] the inhibition at 10 µg/mL ([1]; Human immunodeficiency virus 1, SBA 10 µg/ml, in comparison with the cases when SBA was absent, read-out: inhibition of the replication of the HIV viral particles) was 50%, the “Amount of the HIV p24 antigen” value ([1]; SBA 1 µg/ml, 0th day) was 0 pg/mL and the “Amount of the HIV p24 antigen” value ([1]; SBA 1 µg/ml, 1st day) was 0 pg/mL. For the same molecule, the “Amount of the HIV p24 antigen” value ([1]; SBA 1 µg/ml, 2nd day) was 0 pg/mL, the “Amount of the HIV p24 antigen” value ([1]; SBA 1 µg/ml, 3rd day) was 1400 pg/mL and the “Amount of the HIV p24 antigen” value ([1]; SBA 1 µg/ml, 4th day) was 2600 pg/mL. The “inhibition of the replication of the viral particles of HIV (in words)” value (“inhibition of the replication … (in words)” for short) ([1]; SBA 1 µg/ml, 5th day from the HIV infection) was “considerably inhibited”, the “Amount of the HIV p24 antigen” value ([1]; SBA 1 µg/ml, 5th day) was 4000 pg/mL and the “Amount of the HIV p24 antigen” value ([1]; SBA 10 µg/ml, 0th day) was 0 pg/mL. The “Amount of the HIV p24 antigen” value ([1]; SBA 10 µg/ml, 1st day) was 0 pg/mL, the “Amount of the HIV p24 antigen” value ([1]; SBA 10 µg/ml, 2nd day) was 0 pg/mL and the “Amount of the HIV p24 antigen” value ([1]; SBA 10 µg/ml, 3rd day) was 800 pg/mL. For the same molecule, the “Amount of the HIV p24 antigen” value ([1]; SBA 10 µg/ml, 4th day) was 1500 pg/mL, the “Amount of the HIV p24 antigen” value ([1]; SBA 10 µg/ml, 5th day) was 2250 pg/mL and the “Amount of the HIV p24 antigen” value ([1]; SBA 100 µg/ml, 0th day) was 0 pg/mL. The “Amount of the HIV p24 antigen” value ([1]; SBA 100 µg/ml, 1st day) was 0 pg/mL, the “Amount of the HIV p24 antigen” value ([1]; SBA 100 µg/ml, 2nd day) was 0 pg/mL and the “Amount of the HIV p24 antigen” value ([1]; SBA 100 µg/ml, 3rd day) was 0 pg/mL. The “Amount of the HIV p24 antigen” value ([1]; SBA 100 µg/ml, 4th day) was 0 pg/mL, the “Amount of the HIV p24 antigen” value ([1]; SBA 100 µg/ml, 5th day) was 0 pg/mL and the “inhibition of the replication … (in words)” value ([1]; SBA 100 µg/ml) was “completely inhibited”. For the same molecule, the mortality [2] was “None of the mice thus treated died”, the “inhibition of the replication … (in words)” value ([3]; PBMC blast cells infected with the SBA-pretreated HIV, cultivated in the presence of SBA) was “no appreciable effect of SBA to inhibit the replication of the viral particles of HIV can be observed” and the “Amount of HIV-p24 antigen” value ([3]; SBA 10 µg/ml, cells as infected with HIV) was 1500 pg/mL. For the same molecule, the “Amount of HIV-p24 antigen” value ([3]; SBA 10 µg/ml, cells as infected with the SBA-pretreated HIV) was 1240 pg/mL, the “Amount of HIV-p24 antigen” value ([3]; SBA 50 µg/ml, cells as infected with HIV) was 1400 pg/mL and the “Amount of HIV-p24 antigen” value ([3]; SBA 50 µg/ml, cells as infected with the SBA-pretreated HIV) was 1520 pg/mL. For the same molecule, the “inhibition of the production of the HIV antigen (in words)” value ([3]; SBA 100 µg/ml, PHA-activated PBMC blast cells infested with HIV) was “exhibited an effective activity inhibitory to the production of the HIV antigen”, the “Amount of HIV-p24 antigen” value ([3]; SBA 100 µg/ml, cells as infected with HIV) was 380 pg/mL and the “Amount of HIV-p24 antigen” value ([3]; SBA 100 µg/ml, cells as infected with the SBA-pretreated HIV) was 1430 pg/mL.
